Results on seven compounds are retold here after ChEMBL document CHEMBL1201862, “PubChem BioAssay data set” (2004).

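48-hour exposure; five concentrations; linearly interpolated endpoints. The concentration for 50% growth inhibition is given as GI50.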 Activity calls are given as the source filed them. Cut-off read from the data, not from the text of the source: active = GI50 up to about 1.1 µM and inactive = higher. A value given as a limit tells only on which side of the number the result lay.

Some test systems named below: TK-10; SF-539; NCI-H522; OVCAR-8; MCF7; DU-145; SK-MEL-5; SR; SW-620; M14; NCI-H226; Malme-3M; HOP-92; U-251; CCRF-CEM; HOP-62; SN12C; RPMI-8226; SF-295; KM12.
Test in all cases: growth of human tumour cells (NCI), 48 h

For the compound `CCOc1ccc2c(ccc(/C=C/c3cc(C)c4cccnc4c3O)[n+]2C)c1`, the GI50 in the assay with TK-10 was 0.575 µM (active); with SF-539 it was 0.485 µM (active); with NCI-H522 it was 0.583 µM (active); in the assay with OVCAR-8, 0.301 µM (active); with MCF7 it was 0.115 µM (active); in the assay on DU-145 it was 3.62 µM (inactive). The GI50 was 0.627 µM (active) in the assay with SK-MEL-5; 0.153 µM (active) in the assay with SR; 0.459 µM (active) in the assay with SW-620; 0.836 µM (active) with M14; 0.859 µM (active) in the assay with NCI-H226; 1.94 µM (inactive) in the assay with Malme-3M. The GI50 was 0.881 µM (active) in the assay with HOP-92; 0.18 µM (active) with U-251; 0.0673 µM (active) with CCRF-CEM; 1.14 µM (inactive) with HOP-62; 0.274 µM (active) in the assay with SN12C; 0.818 µM (active) in the assay on RPMI-8226. Besides, the GI50 in the assay on SF-295 was 1.24 µM (inactive); in the assay with KM12, 0.908 µM (active).
For `COc1ccc(Cn2c3ccc([N+](=O)[O-])cc3c(=O)n2Cc2ccccn2)cc1`, the GI50 in the assay on TK-10 was > 100 µM (inactive); in the assay on SF-539, > 100 µM (inactive); with NCI-H522, 66.4 µM (inactive); in the assay with OVCAR-8, 57.7 µM (inactive); in the assay with MCF7 it was > 100 µM (inactive); in the assay on DU-145, > 100 µM (inactive). Besides, the GI50 in the assay on SK-MEL-5 is 24.9 µM (inactive); in the assay with SR, 63 µM (inactive); in the assay with SW-620, > 100 µM (inactive); in the assay on M14, 46 µM (inactive); in the assay on NCI-H226, > 100 µM (inactive); in the assay on Malme-3M it was 80.9 µM (inactive). In addition, the GI50 is 90.6 µM (inactive) in the assay on HOP-92; > 100 µM (inactive) in the assay with U-251; 62.5 µM (inactive) with CCRF-CEM; > 100 µM (inactive) in the assay on HOP-62; > 100 µM (inactive) with SN12C; 34.5 µM (inactive) in the assay on RPMI-8226. Also, the GI50 in the assay on SF-295 is > 100 µM (inactive); with KM12 it was 92.5 µM (inactive).
Take `Cc1ccc(S(=O)(=O)Oc2coc(CO)cc2=O)cc1`: the GI50 in the assay on TK-10 is 17.5 µM (inactive); in the assay on SF-539, 20.2 µM (inactive); with NCI-H522, 1.76 µM (inactive); in the assay with OVCAR-8 it was 17.6 µM (inactive); with MCF7, 4.7 µM (inactive); in the assay with DU-145, 12.2 µM (inactive). In addition, the GI50 was 13.5 µM (inactive) in the assay on SK-MEL-5; 3.82 µM (inactive) in the assay with SR; 12.3 µM (inactive) with SW-620; 13.1 µM (inactive) with M14; 33.1 µM (inactive) in the assay with NCI-H226; 16.2 µM (inactive) in the assay with Malme-3M. Further, the GI50 in the assay on HOP-92 is 16 µM (inactive); with U-251, 9.84 µM (inactive); in the assay with CCRF-CEM, 3.08 µM (inactive); in the assay with HOP-62, 14.7 µM (inactive); in the assay on SN12C, 12.7 µM (inactive); with RPMI-8226, 3.97 µM (inactive). Also, the values for the GI50 with SF-295 and in the assay with KM12 were 16 µM (inactive) and 4.86 µM (inactive), respectively.
`O=CNc1ccccc1OCCOc1ccccc1NC=O`: the GI50 in the assay with TK-10, in the assay with SF-539, in the assay with NCI-H522, in the assay on OVCAR-8, in the assay on MCF7 and in the assay on DU-145 was > 100 µM (inactive) throughout. Further, the GI50 in the assay with SK-MEL-5, with SR, with SW-620, in the assay on M14, in the assay with NCI-H226 and in the assay with Malme-3M was > 100 µM (inactive) throughout. The GI50 with HOP-92, with U-251, in the assay with CCRF-CEM, in the assay with HOP-62, in the assay on SN12C and with RPMI-8226 was > 100 µM (inactive) in each case. Moreover, the GI50 with SF-295 and in the assay with KM12 was > 100 µM (inactive) throughout.
For the compound `CC1=NN(C(=O)CC(=O)Nc2cccc(Cl)c2)C(=O)C1/N=N\c1ccc(S(=O)(=O)c2ccc(/N=N/C3C(=O)N(C(=O)CC(=O)Nc4cccc(Cl)c4)N=C3C)cc2)cc1` (stereo not given), the GI50 in the assay on TK-10 was > 100 µM (inactive); in the assay with SF-539 it was 22.6 µM (inactive); in the assay with NCI-H522, > 100 µM (inactive); in the assay with OVCAR-8, > 100 µM (inactive); in the assay with MCF7 it was > 100 µM (inactive); with DU-145 it was 83.8 µM (inactive). Besides, the GI50 in the assay on SK-MEL-5 is 40.8 µM (inactive); in the assay on SR it was > 100 µM (inactive); in the assay with SW-620 it was > 100 µM (inactive); with M14 it was > 100 µM (inactive); with NCI-H226, > 100 µM (inactive); in the assay with Malme-3M, > 100 µM (inactive). Besides, the GI50 in the assay on HOP-92 was > 100 µM (inactive); in the assay with U-251, 29.4 µM (inactive); with CCRF-CEM, > 100 µM (inactive); with HOP-62 it was > 100 µM (inactive); with SN12C it was > 100 µM (inactive); in the assay on RPMI-8226, > 100 µM (inactive). Further, the GI50 with SF-295 and in the assay on KM12 was > 100 µM (inactive) each time.
Regarding `OC(CC(c1ccccc1)c1ccc(Cl)cc1)c1ccc(Cl)cc1` (stereo not given), the GI50 in the assay with TK-10 is 38 µM (inactive); with SF-539, 21.4 µM (inactive); with NCI-H522, 25.1 µM (inactive); with OVCAR-8 it was 36.8 µM (inactive); in the assay with MCF7, 28.4 µM (inactive); in the assay with DU-145 it was 44.9 µM (inactive). The GI50 with SK-MEL-5 was 32 µM (inactive); in the assay on SR, 27.3 µM (inactive); in the assay with SW-620 it was 40.7 µM (inactive); in the assay on M14 it was 37.3 µM (inactive); with NCI-H226 it was 31.6 µM (inactive); in the assay with Malme-3M it was 25.5 µM (inactive). Besides, the GI50 was 26.4 µM (inactive) with HOP-92; 39.7 µM (inactive) in the assay with U-251; 36.8 µM (inactive) in the assay with CCRF-CEM; 36.4 µM (inactive) in the assay with HOP-62; 25.2 µM (inactive) in the assay with SN12C; 26.9 µM (inactive) with RPMI-8226. Besides, the GI50 is 34 µM (inactive) with SF-295 and 30.8 µM (inactive) with KM12.
Consider `N#Cc1nc(CCC(C(=O)O)N2C(=O)c3ccccc3C2=O)oc1N` (stereo not given), for which the GI50 in the assay with TK-10, in the assay on SF-539, in the assay on NCI-H522, with OVCAR-8, with MCF7 and in the assay with DU-145 was > 100 µM (inactive) each time. Also, the GI50 in the assay on SK-MEL-5, with SR, in the assay with SW-620, with M14, with NCI-H226 and in the assay with Malme-3M was > 100 µM (inactive) in each case. Besides, the GI50 in the assay on HOP-92, in the assay on U-251, in the assay on CCRF-CEM, in the assay with HOP-62, in the assay on SN12C and with RPMI-8226 was > 100 µM (inactive) each time. Besides, the GI50 in the assay with SF-295 and with KM12 was > 100 µM (inactive) in each case.
